Assay results as given in patent publication US9804168B2, “Biomarker discovery in complex biological fluid using bead or particle based libraries and diagnostic kits and therapeutics” (OPKO Pharmaceuticals, LLC, priority 2011, dated 2017).

System: anti-DNP antibody
Test: FACS bead model: DNP beads versus acetyl beads with anti-DNP antibody in sera
Type: binding
Conditions: FIG. 40; 1,000 ug/mL sera concentration
Method: The Mean fluorescence intensity (MFI) separation was greatest at the higher dilution of 1,000 ug/mL sera.

## O=[N+]([O-])c1ccc(NCCO)c([N+](=O)[O-])c1 [ethanolamine-DNP]
  competition with binding of DNP (on a plate) to anti-DNP antibody: direct competition
